According to patent US20230331715A1, “SPIRO[3.3]HEPTANE DERIVATIVES FOR THE TREATMENT AND PROPHYLAXIS OF HEPATITIS B VIRUS INFECTION” (priority 2020, published 2023):

What was measured:
Format in all cases: cell-based
HBeAg = test: PHH HBV natural infection assay, HBeAg (alphalisa); settings: Hepatitis B virus, 72 h, read-out: HBeAg IC50, HBV-infected PHH, culture supernatant, compound refreshed two times with 72-hour interval, alphalisa
In short: (§1)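 Primary human hepatocytes infected with HBV at 200 GE/cell plus 4% PEG8000 for 24 h, then sandwich-cultured 72 h in 1% DMSO medium. Compound-containing medium given twice at 72-h intervals. HBsAg and HBeAg measured in supernatant by AlphaLISA.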

HBsAg = test: PHH HBV natural infection assay, HBsAg (alphalisa); settings: Hepatitis B virus, 72 h, read-out: HBsAg IC50, HBV-infected PHH, culture supernatant, compound refreshed two times with 72-hour interval, alphalisa
In short: as §1

[1] = Cytotoxicity in PHH natural infection assay (Cell Counting Kit-8); settings: human; HBV-infected PHH, CCK8, compound refreshed two times with 72-hour interval
In short: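 HBV-infected primary human hepatocytes (200 GE/cell, 4% PEG8000, 24 h; then 72 h sandwich culture) treated with compounds in medium refreshed twice at 72 h intervals. Cytotoxicity measured with CCK8 at end of treatment.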

With `CCN(CC)c1cc(C(=O)NC2CC3(C2)CC(c2nc4cc(Cl)ccc4s2)C3)ccn1` (stereo not drawn) [Example 48, N-[6-(5-chloro-1,3-benzothiazol-2-yl)spiro[3.3]heptan-2-yl]-2-(diethylamino)pyridine-4-carboxamide] the IC50 (HBeAg) was 4.96 µM, the IC50 (HBsAg) was 5.92 µM and the CC50 at 144 h [1] was > 10 µM.
With `CC(C)N(C)c1cc(C(=O)NC2CC3(C2)CC(c2nc4cc(Cl)ccc4s2)C3)ccn1` (stereo not drawn) [Example 49, N-[6-(5-chloro-1,3-benzothiazol-2-yl)spiro[3.3]heptan-2-yl]-2-[isopropyl(methyl)amino]pyridine-4-carboxamide] the IC50 (HBeAg) was 2.38 µM, the IC50 (HBsAg) was 3.14 µM and the CC50 at 144 h [1] was > 10 µM.
With `O=C(NC1CC2(C1)CC(c1nc3cc(Cl)ccc3s1)C2)c1ccnc(N2CCCC2)c1` (stereo not drawn) [Example 50, N-[6-(5-chloro-1,3-benzothiazol-2-yl)spiro[3.3]heptan-2-yl]-2-pyrrolidin-1-yl-pyridine-4-carboxamide] the IC50 (HBeAg) was 9.63 µM, the IC50 (HBsAg) was 9.95 µM and the CC50 at 144 h [1] was > 10 µM.
In the case of `O=C(NC1CC2(C1)CC(c1nc3cc(Cl)ccc3s1)C2)c1ccnc(N2CCCCC2)c1` (stereo not drawn) [Example 51, N-[6-(5-chloro-1,3-benzothiazol-2-yl)spiro[3.3]heptan-2-yl]-2-(1-piperidyl)pyridine-4-carboxamide], the IC50 (HBeAg) is reported as 4.35 µM, the IC50 (HBsAg) is reported as 5.51 µM and the CC50 at 144 h [1] is reported as > 10 µM.
In the case of `O=C(NC1CC2(C1)CC(c1nc3cc(Cl)ccc3s1)C2)c1ccnc(N2CCOCC2)c1` (stereo not drawn) [Example 52, N-[6-(5-chloro-1,3-benzothiazol-2-yl)spiro[3.3]heptan-2-yl]-2-morpholino-pyridine-4-carboxamide], the IC50 (HBeAg) is reported as 2.79 µM, the IC50 (HBsAg) is reported as 2.59 µM and the CC50 at 144 h [1] is reported as > 10 µM.
